Measurements published in patent US20120270928A1, “MICRORNA COMPOUNDS AND METHODS FOR MODULATING MIR-21 ACTIVITY” (REGULUS THERAPEUTICS INC., priority 2011, published 2012).
Values joined by “and” are separate entries in the source; they are usually repeats but may differ in a detail not shown here. Identical values can stand only once.

Key:
[1] = tested on: model of ischemia reperfusion injury (IRI); test: Unilateral ischemia reperfusion injury (IRI) model: kidney collagen 1A1 and collagen 3A1 expression; assay type: in vivo, mouse; details: for Collagen 3A1 (Normalized Expression) Mean / Collagen 1A1 (Normalized Expression) Mean: group mean; for Collagen 1A1 (Normalized Expression) / Collagen 3A1 (Normalized Expression): individual animals
Method: (§1) A model of ischemia reperfusion injury (IRI) is created in the mouse through unilateral or bilateral clamping of kidney arteries, which leads to tubule damage, inflammation, and fibrosis. Kidney dysfunction can occur either early (<5 days) or late (>7 days) in this model, with the early time points useful to test candidate agents for the treatment of acute kidney injury, and the later time points useful to model chronic fibrosis.
(§2) Anti-miR-21 compounds were tested in the unilateral IRI model. Unilateral IRI was induced for a period of 30 minutes. Treatment groups were as follows: sham IRI procedure; IRI with PBS administered subcutaneously; IRI with anti-miR-21 compound 25070 administered intraperitoneally at a dose of 20 mg/kg; the 2′-fluoro/2′-MOE modified anti-miR-21 25919 administered intraperitoneally at a dose of 20 mg/kg; and a 2′-fluoro/2′ modified mismatch anti-miR-21 (having three mismatches to the sequence of miR-21) 25319 administered intraperitoneally at a dose of 20 mg/kg. PBS or anti-miR compound was administered on days 5, 6, and 7 following IRI, and animals were sacrificed 14 days after IRI. As anti-miR compound is administered 5 days following the injury to the kidney, or later, when fibrosis has already occurred to some extent, this treatment regimen is considered a therapeutic regimen, rather than a prophylactic regimen.
(§3) Kidney tissue was collected for analysis of collagen 1A1 and collagen 3A1 expression (shown in Table 0), and collagen area fraction (shown in Table P).
(§4) A similar study was performed with the same treatment groups and additional days of treatment. In this study, treatments were administered intraperitoneally at days 5, 6, 7, 14, and 21 following the IRI procedure Animals were sacrificed on Day 27, and kidney tissue was collected for analysis of collagen 1A1 and collagen 3A1 expression, as well as collagen area fraction.
In order to assess the flexibility of administration of the anti-miR-21 compound 25070, the activity of the compound in the 14 day study above, where anti-miR-21 was administered at […] following the IRI procedure, to a different 14 day study where anti-miR-21 was administered intraperitoneally at days 3, 5, and 7 following the IRI procedure.

[2] = tested on: model of ischemia reperfusion injury (IRI); test: Unilateral IRI model: collagen area fraction of kidney tissue; assay type: in vivo, mouse; details: for Collagen Area Fraction (#) Mean: group mean; for Collagen Area Fraction (#): 20 mg/kg; for reduction in collagen area fraction (significance): IRI
Method: as §1, §2, §3, §4

[3] = tested on: ischemia reperfusion injury/nephrectomy (IR/Nx) model; test: Ischemia reperfusion injury/nephrectomy (IR/Nx) model: urinary albumin to creatinine ratio; assay type: in vivo, mouse
Description: An ischemia reperfusion injury/nephrectomy (IR/Nx) model is created in the mouse through temporary unilateral clamping of an artery in one kidney, which leads to tubule damage, inflammation, and fibrosis, followed by removal of the second kidney at a later timepoint. In this model, the acute kidney dysfunction phase is useful to test candidate agents for the treatment of acute kidney injury (i.e. up to about the first 5 days), and the later phases of kidney dysfunction are useful to model chronic fibrosis (i.e. after about the first 5 days).
Unilateral IR was induced for a period of 30 minutes. Treatment groups were as follows: sham IR procedure; IR with PBS administered subcutaneously; IR with mismatched control 25109 administered subcutaneously at a dose of 20 mg/kg; IR with anti-miR-21 compound 25070 administered subcutaneously at a dose of 20 mg/kg; and IR with anti-miR-21 compound 25923 administered subcutaneously at a dose of 20 mg/kg. PBS or anti-miR was administered on days 2, 3, 4, and 8 following IR. On day 8, the healthy kidney was removed by nephrectomy from each animal, and animals were sacrificed on day 9. Just prior to sacrifice, urine was collected by direct bladder puncture.
Urinary albumin to creatinine ratio was measured in the urine from each mouse. […] The geometric mean of the albumin to creatinine ratio in each group of mice was 16 μgAlb/mgCr (nephrectomy-only control), 127 μgAlb/mgCr (IR/Nx, PBS control), 140 μgAlb/mgCr (IR/Nx, 25109 control), 40 μgAlb/mgCr (IR/Nx, 25070), and 31 μgAlb/mgCr (IR/Nx, 25923). Blood urea nitrogen and serum creatinine levels were similar across all IR/Nx mice, and were elevated relative to nephrectomy-only control mice (data not shown).

IR/Nx model mice = test: Survival rate of IR/Nx model mice two days after nephrectomy; assay type: in vivo
Method: The survival rate of IR/Nx model mice two days after nephrectomy was determined across six different experiments to determine if administration of anti-miR-21 compounds increases survival. In the first three experiments, anti-miR-21 compound was administered on days 5, 6, and 7 after ischemia reperfusion injury, and nephrectomy occurred on day 10 or day 11. In the second three experiments, anti-miR-21 compound was administered on days 2, 3, and 4, and nephrecromy occurred on day 7.

[4] = tested on: UUO model of kidney fibrosis; test: UUO model: collagen area fraction of kidney tissue (picrosirius red histology); assay type: in vivo, mice; details: Table N, 25070 20 mg/kg s.c.
Method: Control treatment groups included UUO only (sham) and UUO with PBS administered subcutaneously. An additional control group included UUO with Tween-MC/20 carrier perorally. 25070 administered subcutaneously at dose of 20 mg/kg at 5 days prior to, 2 days prior to, and 3 days after, the UUO procedure. Irbesartan was administered perorally on daily on days 0 through 7 following the UUO procedure. Animals were sacrificed on Day 10 following the UUO procedure. Kidney tissue was collected for measurement of collagen 1A1 and collagen 3A1 expression.
The ‘collagen area fraction’ is measured histologically through quantitative image processing of the area of kidney tissue that is stained red by the picrosirius red stain; the percent detected as red is normalized by the area of kidney section.

[5] = Table O, unilateral IRI, 20 mg/kg intraperitoneally on days 5, 6, 7, day 14, IRI-PBS mean 63.9
[6] = Table O, unilateral IRI, 20 mg/kg intraperitoneally on days 5, 6, 7, day 14, IRI-PBS mean 85.1
[7] = Table O, unilateral IRI 30 minutes, 20 mg/kg intraperitoneally on days 5, 6, 7 (therapeutic), sacrifice 14 days after IRI, 20 mg/kg
[8] = unilateral IRI mouse, 20 mg/kg intraperitoneally on days 5, 6, 7, 14, and 21, kidney, sacrificed Day 27
[9] = unilateral IRI mouse, 20 mg/kg intraperitoneally on days 5, 6, 7, 14, and 21, kidney, sacrificed Day 27, 20 mg/kg
[10] = Table P, unilateral IRI, 20 mg/kg intraperitoneally on days 5, 6, 7, day 14, IRI-PBS mean 15.1
[11] = Table P, individual animals, unilateral IRI, 20 mg/kg intraperitoneally on days 5, 6, 7, day 14
[12] = unilateral IRI mouse, 20 mg/kg intraperitoneally on days 5, 6, 7, 14, and 21, sacrificed Day 27
[13] = individual animals (not same as PCR), unilateral IRI mouse, 20 mg/kg intraperitoneally on days 5, 6, 7, 14, and 21, sacrificed Day 27
[14] = IRI mouse, 14 day study, dosing Day 5, 6, 7, relative to sham
[15] = IRI mouse, 14 day study, intraperitoneal dosing Day 3, 5, 7, relative to sham

## UECEAFAFCFAFUFCFAFGFUFCEUEGEAFUFAFAFGFCFUEAE (antisense TCAACATCAGTCTGATAAGCTA; listed as DNA, chemistry not fully specified) [Compound 25919, reference compound]
[1]; [5]
  Collagen 3A1 (Normalized Expression) Mean: 59.9
[1]; [6]
  Collagen 1A1 (Normalized Expression) Mean: 72.0
[1]; [7]
  Collagen 1A1 (Normalized Expression): 108.7 and 103.9 and 29.5 and 95.8 and 35.5 and 42.2 and 64.1 and 96.4
  Collagen 3A1 (Normalized Expression): 87.5 and 72.3 and 14.3 and 104.4 and 27.1 and 34.9 and 56.1 and 82.8
[1]; [8]
  Collagen 1A1 (Normalized Expression) Mean: 48.3
  Collagen 3A1 (Normalized Expression) Mean: 34.9
[1]; [9]
  Collagen 1A1 (Normalized Expression): 75.5 and 50.4 and 49.2 and 43.2 and 41.7 and 53.6 and 44.8 and 28.0
  Collagen 3A1 (Normalized Expression): 40.2 and 43.1 and 34.5 and 35.7 and 41.1 and 36.9 and 24.5 and 22.9
[2]; [10]
  Collagen Area Fraction (#) Mean: 8.2 #
[2]; [11]
  Collagen Area Fraction (#): 7.093 # and 8.254 # and 8.095 # and 8.559 # and 8.681 # and 6.31 # and 8.416 # and 9.905 #
[2]; [12]
  Collagen Area Fraction (#) Mean: 12.8
[2]; [13]
  Collagen Area Fraction (#): 11.882 and 9.755 and 9.506 and 12.654 and 20.319 and 11.551 and 12.224 and 14.468

## AECSATCSAGTCSTGAUSAAGCSTAE (ACATCAGTCTGATAAGCTA; modified nucleosides, phosphorothioate linkages, chemistry not fully specified) [Compound 25070]
[1]; IRI, 14 day studies, either dosing schedule (days 5, 6, 7 or days 3, 5, 7)
  reduction of collagen expression (collagen 1A1 or collagen 3A1, significance): statistically significant reduction of collagen expression with either dosing schedule
[1]; [5]
  Collagen 3A1 (Normalized Expression) Mean: 34.2
[1]; [6]
  Collagen 1A1 (Normalized Expression) Mean: 50.2
[1]; [7]
  Collagen 1A1 (Normalized Expression): 81.7 and 57.4 and 37.9 and 55.3 and 22.3 and 52.4 and 53.0 and 41.5
  Collagen 3A1 (Normalized Expression): 57.8 and 18.1 and 39.3 and 36.0 and 20.6 and 38.6 and 33.4 and 29.7
[1]; [14]
  Collagen 1A1 (Normalized Expression) Mean: 24.5
  Collagen 3A1 (Normalized Expression) Mean: 26.2
  Collagen 1A1 (Normalized Expression): 21.7 and 22.8 and 15.8 and 27.6 and 27.1 and 29.3 and 10.8 and 21.5 and 29.9 and 35.0 and 28.3 and 24.2
  Collagen 3A1 (Normalized Expression): 24.9 and 26.3 and 13.6 and 25.4 and 32.7 and 29.9 and 9.7 and 22.2 and 33.2 and 35.4 and 32.3 and 28.9
[1]; [15]
  Collagen 1A1 (Normalized Expression) Mean: 27.2
  Collagen 3A1 (Normalized Expression) Mean: 27.9
  Collagen 1A1 (Normalized Expression): 37.5 and 21.9 and 35.3 and 26.0 and 24.9 and 16.8 and 30.8 and 34.3 and 36.8 and 9.4 and 28.0 and 24.6
  Collagen 3A1 (Normalized Expression): 35.3 and 23.6 and 32.1 and 25.1 and 31.3 and 18.6 and 30.3 and 37.6 and 40.0 and 9.5 and 23.2 and 28.7
[1]; [8]
  Collagen 1A1 (Normalized Expression) Mean: 31.4
  Collagen 3A1 (Normalized Expression) Mean: 20.8
[1]; [9]
  Collagen 1A1 (Normalized Expression): 26.4 and 37.4 and 41.9 and 36.8 and 14.1 and 27.7 and 29.4 and 37.6
  Collagen 3A1 (Normalized Expression): 16.4 and 27.0 and 28.5 and 19.6 and 11.3 and 19.3 and 21.4 and 23.1
[3]; 20 mg/kg subcutaneously on days 2, 3, 4, and 8
  reduction in urinary albumin to creatinine ratio (significance): statistically significant reductions
[3]; 20 mg/kg subcutaneously on days 2, 3, 4, and 8, urine on day 9
  geometric mean of the urinary albumin to creatinine ratio: 40 μgAlb/mgCr
IR/Nx model mice; Studies 1-3 pooled, Nx day 10/11, dosing days 5, 6, and 7
  Survival rate 2 days after Nx, Summary (day 10/11 Nx): 80% (29/36)
IR/Nx model mice; Studies 4-6 pooled, Nx day 7, dosing days 2, 3, and 4
  Survival rate 2 days after Nx, Summary (day 7 Nx): 69% (25/36)
IR/Nx model mice; Study 1, Nx Day 10, 30 mg/kg on days 5, 6, and 7 after IR
  Survival rate 2 days after Nx: 91.7%
IR/Nx model mice; Study 2, Nx Day 11, 30 mg/kg on days 5, 6, and 7 after IR
  Survival rate 2 days after Nx: 83.3%
IR/Nx model mice; Study 3, Nx Day 10, 20 mg/kg on days 5, 6, and 7 after IR
  Survival rate 2 days after Nx: 66.6%
IR/Nx model mice; Study 4, Nx Day 7, 20 mg/kg on days 2, 3, and 4 after IR
  Survival rate 2 days after Nx: 75%
IR/Nx model mice; Study 5, Nx Day 7, 20 mg/kg on days 2, 3, and 4 after IR
  Survival rate 2 days after Nx: 66.7%
IR/Nx model mice; Study 6, Nx Day 7, 20 mg/kg on days 2, 3, and 4 after IR
  Survival rate 2 days after Nx: 66.7%
IR/Nx model mice; first three experiments, dosing days 5, 6, 7, nephrectomy on day 10 or day 11
  survival rate two days after nephrectomy: 80%
IR/Nx model mice; second three experiments, dosing days 2, 3, 4, nephrectomy on day 7
  survival rate two days after nephrectomy: 69%
[2]; 20 mg/kg intraperitoneally on days 5, 6, and 7, sacrifice 14 days after IRI
  reduction in collagen area fraction (significance): statistically significant reduction
[2]; intraperitoneally at days 5, 6, 7, 14, and 21, sacrifice Day 27
  reduction in collagen area fraction (significance): statistically significant reduction
[2]; [10]
  Collagen Area Fraction (#) Mean: 9.7 #
[2]; [11]
  Collagen Area Fraction (#): 10.266 # and 11.772 # and 10.267 # and 8.404 # and 7.862 # and 6.975 # and 8.381 # and 13.773 #
[2]; [12]
  Collagen Area Fraction (#) Mean: 10.1
[2]; [13]
  Collagen Area Fraction (#): 7.354 and 9.241 and 9.589 and 11.573 and 8.182 and 10.695 and 13.978 and 10.12
[4]; group mean, irbesartan PO, Day 10, UUO-PBS 11.1, Tween/MC vehicle 8.0
  Collagen Area Fraction (%) Mean: 8.0%
[4]; individual animals, irbesartan PO daily days 0-7, Day 10, picrosirius red, 20 mg/kg
  Collagen Area Fraction (%): 7.632% and 9.937% and 8.015% and 6.611% and 6.319% and 11.272% and 6.803% and 7.405%
